Results on two molecules are retold here after PMC5916772 (ACS combinatorial science, 2017).

The IC50 is the point on the concentration scale where inhibition reaches its midpoint.

The test system of assay [1] is polyclonal anti-1′Nic antiserum. The assay is described as follows: Competition ELISA of polyclonal anti-1′Nic antiserum on 1′Nic-BSA coated plates. Format: binding, mice. Particulars: pooled polyclonal anti-1′Nic antiserum; free HPs as competitors. (In an ELISA, binding on a coated surface is turned into a signal by an enzyme label.)
Assay [2] concerns monoclonal anti-1′Nic antibody, mAb-5F3. Format: binding, mice.

As to `O=C(CCCN1CCC[C@H]1c1cccnc1)NC1CCC(C(=O)O)CC1` (stereo partly drawn) [HP 2, 4-(4-((S)-2-(Pyridin-3-yl)pyrrolidin-1-yl)butanamido)-cyclohexanecarboxylic Acid], the “HP-IC50/Nic-IC50 ratio, binding activity to antiserum” value in assay [1] is given as “close to or larger than 1.0”.
For the molecule `CN1CCC[C@H]1c1cccnc1` [free Nic, nicotine], the HP-IC50/Nic-IC50 in assay [2] (IC50 ratio of HP-IC50 to IC50 of free nicotine on the same ELISA plate) is listed as 1.0. Besides, in assay [2] (read-out: HP-IC50, free HPs as competitors, 1′Nic-BSA coated plates), the IC50 was 1410 ± 250 nM.
